Measured values taken from publication PMC10549826 (Antiviral research, 2023).

Biological target: A/Victoria/361/2011 NA, wild-type sequence Q136, T148, R150, T439 (recombinant PR8-based A(H3N2) virus) (Influenza A virus, UniProt G9LQ08)
Format: biochemical

CCC(CC)[C@H](NC(C)=O)[C@@H]1[C@H](O)[C@@H](C(=O)O)C[C@H]1N=C(N)N [Peramivir, peramivir]
IC50: 0.07 ± 0.01 nM
